System: rat adipocytes
Experiment: IPG A-type bioassay: stimulation of lipogenesis ([U14C] glucose into lipids) in adipocytes
Format: cell-based
Settings: insulin standard assayed at the same time
Experimental: The activity of P- and A-type IPGs in urine and placental extracts were studied using specific bioassay procedures. IPG P-type was determined using the activation of PDH phosphatase. The PDH complex and PDH phosphatase (metal-dependent form) were prepared from beef heart as described by Lilley et al. and the assay of the activation of the phosphatase was performed by the spectrophotometric variant of the two-stage system described by these authors. This assay is considered to be a characteristic feature of IPG P-type (see Larner et al.) . IPG A-type was determined by the stimulation of lipogenesis as measured by the incorporation of [U^14C] glucose into the lipids of adipocytes isolated from epididymal fat pads by the method of Rodbell. A high degree of specificity for IPG A-type was found for this bioassay.
A straight line relationship between added IPGs and the stimulation of PDH phosphatase activity (IPG P-type) and lipogenesis in intact adipocytes (IPG A-type) was obtained; this relationship held at least up to a stimulation of +250%. These observations provided a basis for a unit to be defined and used for the purpose of comparison of yields of IPGs from different tissues and urine samples.
A unit of IPG is defined as the amount causing a 50% activation in the basal level of the test system.

For insulin [insulin standard], the “stimulation of lipogenesis above base-line” value was “+258%”.
